{"source": "paper PMC8282797", "about": "“Strictly regulated agonist-dependent activation of AMPA-R is the key characteristic of TAK-653 for robust synaptic responses and cognitive improvement” (Scientific Reports, 2021)", "key": {"AMPA-R": {"tested_on": "AMPA-R", "test": "Ca2+ influx assay using rat primary hippocampal neurons", "type": "cell-based", "protocol": "Ca^2+ influx assay using primary neurons was performed as previously described. After 5 days of culture, the cells plated on poly-D-lysine coated 96-well plates (Corning Incorporated) at 2 × 10^4 or 5 × 10^4 cells/well were used for experiments with PF-04958242 or TAK-653, respectively. Fluorescent calcium indicator dye solution (Calcium4 assay Kit, Dojindo, Kumamoto, Japan) in Ca^2+ reaction buffer (DMEM, HEPES and BSA) containing Probenecid (Dojindo) was added and incubated for 60 min in 5% CO2 at 37 °C. After washing once, the relative increases in intracellular Ca^2+ levels stimulated by compounds in the presence and absence of AMPA were monitored. Details are described in the Supplementary Information.\nPrimary cultures of hippocampal neuronal cells were prepared from fetal Sprague-Dawley rats at 19 days of gestation. Rat embryos were decapitated and their whole brains were isolated. Hippocampi were dissected in ice-cold Hanks' Balanced Salt Solutions (HBSS) under a microscope and then dispersed into cells using a neural cell dispersion kit (Sumitomo Bakelite Co., Ltd., Tokyo, Japan). The dissociated cells were suspended in Neurobasal medium containing B27 supplement (Thermo Fisher Scientific Inc.), 2 mM L-glutamine (Lonza, Basel, Switzerland), 100 U/mL penicillin (Lonza), 100 μg/mL streptomycin (Lonza) and 20 μg/mL gentamicin sulfate (Lonza). The cells were plated on poly-D-lysine coated 96-well plates (Corning Incorporated) for Ca^2+ influx assay or on poly-L-lysine coated 96-well plates (Sumitomo Bakelite) for measurement of BDNF protein levels and cultured in a humidified CO2 incubator with 5% CO2 at 37°C.\nAfter 5 days of culture, the cells at 2×10^4 or 5×10^4 cells/well were used for experiments with PF-04958242 or TAK-653, respectively. For TAK-653, after removal of culture medium, 75 µL of fluorescent calcium indicator dye solution (Calcium4 assay Kit, Dojindo, Kumamoto, Japan) in Ca^2+ reaction buffer (DMEM, 10 mM HEPES and 0.1% BSA) containing 1.25 mM Probenecid (Dojindo) was added and incubated for 60 min in 5% CO2 at 37°C and washed once using 75 µL of fluorescent calcium indicator dye solution. After addition of 75 µL of fluorescent calcium indicator dye solution to each well again, the relative increases in intracellular Ca^2+ levels by compounds in the presence and absence of 5 μM AMPA were monitored for 8.5 min by fluorometric imaging plate reader. Activity of the compound was defined as fluorescence intensity integrated over the entire period of measurement. Intensity of 0% was defined as activity in the presence of only DMSO, while 100% was defined as activity in the presence of 5 μM AMPA and 10 μM HBT1. For PF-04958242, after removal of culture medium, 90 µL of fluorescent calcium indicator dye solution (Calcium4 assay Kit, Dojindo) in Ca^2+ reaction buffer (DMEM, 20 mM HEPES and 0.1% BSA) containing 2.5 mM Probenecid (Dojindo) was added and incubated for 60 min in 5% CO2 at 37°C. After addition of 90 µL of fluorescent calcium indicator dye solution to each well again, the relative increases in intracellular Ca^2+ levels by compounds in the presence and absence of 1 μM AMPA were monitored for 2 min in a microplate reader (CellLux, PerkinElmer, Waltham, MA, USA). Activity of the compound was defined as fluorescence intensity integrated over the entire period of measurement. 100% was defined as activity in the presence of 1 μM AMPA and 10 μM HBT1, while intensity of 0% was defined as activity in the presence of 1 μM AMPA or only DMSO for potentiator effect or agonistic effect, respectively. EC50 values were calculated by logistic regression analysis."}, "naïve rats": {"tested_on": "naïve rats", "test": "Novel object recognition (NOR) test", "type": "in vivo, rat", "details": "p.o., rats", "protocol": "NOR tests were performed using male Long-Evans rats at 6 weeks old as previously described, with some modifications. On day 1, rats were allowed to habituate to the empty test box (a gray-colored polyvinyl chloride box (40 × 40 × 50 cm)) for 10 min individually. Testing comprised two 3-min trials called the acquisition trial and the retention trial that were separated by 48 h inter-trial intervals (ITIs). On day 2, in the acquisition trial, rats were allowed to explore two identical objects (A1 and A2) for 3 min. On day 4, in the retention trial, rats were again allowed to explore a familiar object (A3) and a novel object (B) for 3 min. The object exploration was defined as rats' licking, sniffing or touching the object with forelimbs while sniffing. TAK-653 or AMPA was orally or intraperitoneally, respectively, 2 h or 0.5 h prior to the acquisition and the retention trials. The NDI was calculated using the following equation: novel object interaction/total interaction × 100 (%)."}, "[1]": {"tested_on": "MK-801-induced working memory deficit in rats", "test": "Radial arm maze (RAM) test, MK-801-induced working memory deficit", "type": "in vivo, rat", "details": "given 0.5 h before MK-801 0.08 mg/kg, s.c.", "protocol": "RAM tests were performed using 9-week-old male Long-Evans rats as previously described with a minor modification. Each arm was 50 cm long, 10 cm wide and 40 cm high, and the maze was elevated 50 cm above the floor. Long-Evans rats were food-restricted to 85% of free-feeding body weight throughout the experimental period. Rats were well trained to collect pellets placed on the edge of each arm. The learning criterion for the testing session was defined as 2 errors or fewer for 2 consecutive days. In the testing session, each rat was placed on the maze facing the fixed arm at the start of the trial. The entry of rats into each arm was recorded in sequence until all pellets in the 8 arms were consumed, or 5 min had elapsed. […] Thirty min after dosing of vehicle or MK-801, rats were placed on the maze. Details are described in the Supplementary Information.\nThe experiment was performed using 9-week-old male Long-Evans rats as described previously (Zajaczkowski et al., 1996) with a minor modification. Each arm was 50 cm long, 10 cm wide and 40 cm high, and the maze was elevated 50 cm above the floor. After being fasted for 24 h, male Long-Evans rats were food-restricted to 85% of free-feeding body weight on the first day of exposure to the maze and throughout the experimental period. The experiment consists of two sessions, training and testing session. In the training session, rats were habituated to the maze and then trained. Reinforcement consisted of 3 food pellets (45 mg each) in the food cup was used. On the first day of habituation to the maze, reinforcements were placed near the entrance and at the mid-point of each arm. Three rats were placed on the maze at one time and allowed to explore and consume the pellets for 8 min. On the second day of habituation, each rat was placed on the maze and allowed 5 min to consume the pellets placed at the mid-point and in the food cup at the end of each arm. From the third day, reinforcement was placed in the food cup at the end of each arm. Rats were well trained to collect pellets placed on the edge of each arm. The learning criterion for the testing session was defined as 2 errors or less for two consecutive days. In the previous day of the testing session, baseline level of performance was qualified to confirm that rats completed collecting all pellets placed in the 8 arms with two errors or less. In the testing session, each rat was placed on the maze facing away from the experimenter and facing the fixed arm at the start of the trial. The entry of rats into each arm was recorded in sequence. Rats were allowed to explore until all pellets in the 8 arms were consumed, or 5 min had elapsed. Entry into an arm previously chosen was counted as an error. […] […] Thirty min after dosing of vehicle or MK-801, rats were placed on the maze. Data were indicated as the mean ± SEM in the testing session."}}}
{"compound": "CC(C)S(=O)(=O)N[C@H]1COC[C@H]1Oc1ccc(-c2ccc(C#N)s2)cc1", "note": "[PF-04958242, N-{(3S,4S)-4-[4-(5-cyano-2-thienyl)phenoxy]tetrahydrofuran-3-yl}propane-2-sulfonamide]", "values": [{"measurement": "Agonistic effect: Ca2+ increase in the absence of AMPA", "setting": "AMPA-R", "value": "potently produced a Ca^2+ increase in the absence of AMPA"}, {"measurement": "Dose improving visual learning and memory in NOR test", "setting": "naïve rats", "value": "≥ 0.1", "unit": "mg/kg"}, {"measurement": "Working memory in the RAM test", "setting": "[1]", "value": "did not improve"}]}
